Measurements as given in PubChem BioAssay AID248 (DTP/NCI, 2004).
Where “and” joins values, the source holds several entries; their conditions need not be identical. Identical values can stand only once. Inconclusive results and toxic doses are left out. Rule as the data show it: active = T/C of 150% or more; inactive = T/C below 125%.

Test system: L1210 leukemia ip in BDF1 mice, survival T/C
Assay: NCI In Vivo Anticancer Drug Screen. Data for tumor model L1210 Leukemia (intraperitoneal) in B6D2F1 (BDF1) mice
Conditions: higher = longer survival
Method in brief: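 Transplantable tumor model; survival measured in treated vs vehicle control mice. Value = treated/control.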

[1] = endpoint: mean survival time, dose: 50.0 mg/kg/injection, schedule: Q01DX001 (ip), vehicle: saline
[2] = endpoint: mean survival time, dose: 100.0 mg/kg/injection, schedule: Q01DX001 (ip), vehicle: saline
[3] = endpoint: mean survival time, dose: 100.0 mg/kg/injection, schedule: Q04DX003 (ip), vehicle: saline
[4] = endpoint: mean survival time, dose: 200.0 mg/kg/injection, schedule: Q01DX001 (ip), vehicle: saline
[5] = endpoint: mean survival time, dose: 200.0 mg/kg/injection, schedule: Q04DX003 (ip), vehicle: saline
[6] = endpoint: mean survival time, dose: 400.0 mg/kg/injection, schedule: Q01DX001 (ip), vehicle: saline
[7] = endpoint: mean survival time, dose: 400.0 mg/kg/injection, schedule: Q04DX003 (ip), vehicle: saline
[8] = endpoint: mean survival time, dose: 50.0 mg/kg/injection, schedule: Q01DX009 (ip), vehicle: saline with Tween-80
[9] = endpoint: mean survival time, dose: 100.0 mg/kg/injection, schedule: Q01DX009 (ip), vehicle: saline with Tween-80
[10] = endpoint: mean survival time, dose: 200.0 mg/kg/injection, schedule: Q01DX009 (ip), vehicle: saline with Tween-80
[11] = endpoint: mean survival time, dose: 100.0 mg/kg/injection, schedule: Q04DX003 (ip), vehicle: saline with Tween-80
[12] = endpoint: mean survival time, dose: 200.0 mg/kg/injection, schedule: Q04DX003 (ip), vehicle: saline with Tween-80
[13] = endpoint: mean survival time, dose: 100.0 mg/kg/injection, schedule: Q04DX002 (ip), vehicle: Klucel (hydroxypropylcellulose) (HPC)
[14] = endpoint: mean survival time, dose: 100.0 mg/kg/injection, schedule: Q04DX003 (ip), vehicle: Klucel (hydroxypropylcellulose) (HPC)
[15] = endpoint: mean survival time, dose: 200.0 mg/kg/injection, schedule: Q04DX002 (ip), vehicle: Klucel (hydroxypropylcellulose) (HPC)
[16] = endpoint: mean survival time, dose: 200.0 mg/kg/injection, schedule: Q04DX003 (ip), vehicle: Klucel (hydroxypropylcellulose) (HPC)
[17] = endpoint: mean survival time, dose: 400.0 mg/kg/injection, schedule: Q04DX002 (ip), vehicle: Klucel (hydroxypropylcellulose) (HPC)

Measured: T/C

CCC(=O)OCC1OC(n2cc(F)c(=O)[nH]c2=O)CC1OC(=O)CC (configuration not stated)
inactive: [1] 101 % of control | endpoint: mean survival time, dose: 89.0 mg/kg/injection, schedule: Q01DX015 (ip), vehicle: saline 117 % of control | [2] 101 % of control | [3] 104 % of control | [4] 101 % of control | [5] 114 % of control | endpoint: mean survival time, dose: 264.0 mg/kg/injection, schedule: Q04DX003 (ip), vehicle: saline 111 % of control and 112 % of control | endpoint: mean survival time, dose: 300.0 mg/kg/injection, schedule: Q01DX015 (ip), vehicle: saline 115 % of control | [6] 113 % of control | [7] 108 % of control

S=C1CC2CCCC(C2)N1 (configuration not stated)
inactive: endpoint: mean survival time, dose: 10.0 mg/kg/injection, schedule: Q01DX001 (ip), vehicle: carboxymethylcellulose (CMC) 93 % of control | endpoint: mean survival time, dose: 20.0 mg/kg/injection, schedule: Q01DX001 (ip), vehicle: carboxymethylcellulose (CMC) 93 % of control | endpoint: mean survival time, dose: 80.0 mg/kg/injection, schedule: Q01DX001 (ip), vehicle: carboxymethylcellulose (CMC) 100 % of control

Cc1ccc(NC(=O)COc2ccc(Cl)cc2Cl)cc1Cl
inactive: endpoint: mean survival time, dose: 25.0 mg/kg/injection, schedule: Q01DX009 (ip), vehicle: saline with Tween-80 91 % of control | [8] 89 % of control | [9] 86 % of control | [10] 87 % of control | endpoint: mean survival time, dose: 400.0 mg/kg/injection, schedule: Q01DX009 (ip), vehicle: saline with Tween-80 88 % of control

NC(=O)c1cc(C(N)=O)cc([N+](=O)[O-])c1
inactive: [8] 101 % of control | [9] 101 % of control | [11] 100 % of control | [12] 96 % of control

CC(C)=CCCC(O)C1CCC2C3CCC4CCCCC4(C)C3CCC12C (configuration not stated)
inactive: endpoint: mean survival time, dose: 100.0 mg/kg/injection, schedule: Q04DX002 (ip), vehicle: DMSO 96 % of control | endpoint: mean survival time, dose: 200.0 mg/kg/injection, schedule: Q04DX002 (ip), vehicle: DMSO 96 % of control | endpoint: mean survival time, dose: 400.0 mg/kg/injection, schedule: Q04DX002 (ip), vehicle: DMSO 92 % of control

Nc1cccc(CC(=O)c2ccccc2)n1
inactive: endpoint: mean survival time, dose: 5.0 mg/kg/injection, schedule: Q01DX001 (ip), vehicle: saline 97 % of control | endpoint: mean survival time, dose: 10.0 mg/kg/injection, schedule: Q01DX001 (ip), vehicle: saline 106 % of control | endpoint: mean survival time, dose: 20.0 mg/kg/injection, schedule: Q01DX001 (ip), vehicle: saline 100 % of control | endpoint: mean survival time, dose: 40.0 mg/kg/injection, schedule: Q01DX001 (ip), vehicle: saline 97 % of control | endpoint: mean survival time, dose: 80.0 mg/kg/injection, schedule: Q01DX001 (ip), vehicle: saline 100 % of control | [4] 106 % of control

CC(C)=NNC(=O)c1ccc[n+](Cc2ccccc2)c1
inactive: endpoint: mean survival time, dose: 75.0 mg/kg/injection, schedule: Q01DX001 (ip), vehicle: saline 102 % of control | endpoint: mean survival time, dose: 150.0 mg/kg/injection, schedule: Q01DX001 (ip), vehicle: saline 98 % of control | endpoint: mean survival time, dose: 300.0 mg/kg/injection, schedule: Q01DX001 (ip), vehicle: saline 105 % of control

Cc1ccc(NC(=O)Oc2cccnc2)cc1NC(=O)Oc1cccnc1
inactive: endpoint: mean survival time, dose: 100.0 mg/kg/injection, schedule: Q01DX009 (ip), vehicle: Klucel (hydroxypropylcellulose) (HPC) 93 % of control | endpoint: mean survival time, dose: 200.0 mg/kg/injection, schedule: Q01DX009 (ip), vehicle: Klucel (hydroxypropylcellulose) (HPC) 94 % of control

Cc1ccccc1Nc1n[nH]c(=S)s1
inactive: [8] 94 % of control | [9] 101 % of control | [11] 97 % of control | [10] 97 % of control | [12] 95 % of control

COc1cc(Nc2nc(N)ncc2[N+](=O)[O-])cc(OC)c1OC
inactive: [11] 92 % of control | [12] 87 % of control | endpoint: mean survival time, dose: 400.0 mg/kg/injection, schedule: Q04DX003 (ip), vehicle: saline with Tween-80 88 % of control

CC(=O)C1CCC2C3CC=C4CC(O)CCC4(C)C3CCC12C (configuration not stated)
inactive: [13] 91 % of control | [14] 89 % of control | [15] 100 % of control | [16] 92 % of control | [17] 91 % of control

NC(N)=N/N=C\c1ccc(/C=N/N=C(N)N)cc1
inactive: endpoint: mean survival time, dose: 60.0 mg/kg/injection, schedule: Q01DX Z (oral), vehicle: saline 103 % of control | endpoint: mean survival time, dose: 120.0 mg/kg/injection, schedule: Q01DX Z (oral), vehicle: saline 108 % of control | endpoint: mean survival time, dose: 240.0 mg/kg/injection, schedule: Q01DX Z (oral), vehicle: saline 101 % of control | endpoint: mean survival time, dose: 480.0 mg/kg/injection, schedule: Q01DX Z (oral), vehicle: saline 108 % of control

CC1([N+](=O)[O-])COP(=O)(Nc2ccccc2)OC1 (configuration not stated)
inactive: [1] 96 % of control | [2] 98 % of control | [4] 93 % of control | [6] 110 % of control

Clc1cccc(Cl)c1C[n+]1ccccc1
inactive: endpoint: mean survival time, dose: 9.38 mg/kg/injection, schedule: Q01DX001 (ip), vehicle: saline 110 % of control | endpoint: mean survival time, dose: 18.75 mg/kg/injection, schedule: Q01DX001 (ip), vehicle: saline 110 % of control

Nc1ccc2c(c1)oc1ccccc12
inactive: [13] 107 % of control | [15] 103 % of control | [17] 110 % of control

C#CCOCCC(C(=O)O)C(=O)O
inactive: endpoint: mean survival time, dose: 100.0 mg/kg/injection, schedule: Q01DX009 (ip), vehicle: acetone 90 % of control | endpoint: mean survival time, dose: 100.0 mg/kg/injection, schedule: Q04DX003 (ip), vehicle: acetone 101 % of control | endpoint: mean survival time, dose: 200.0 mg/kg/injection, schedule: Q01DX009 (ip), vehicle: acetone 97 % of control | endpoint: mean survival time, dose: 200.0 mg/kg/injection, schedule: Q04DX003 (ip), vehicle: acetone 101 % of control | endpoint: mean survival time, dose: 400.0 mg/kg/injection, schedule: Q04DX003 (ip), vehicle: acetone 92 % of control

C[N+](C)(C)C1CCCCCCC(=O)NC1 (configuration not stated)
inactive: endpoint: mean survival time, dose: 75.0 mg/kg/injection, schedule: Q01DX009 (ip), vehicle: saline 101 % of control | endpoint: mean survival time, dose: 150.0 mg/kg/injection, schedule: Q01DX009 (ip), vehicle: saline 92 % of control | endpoint: mean survival time, dose: 300.0 mg/kg/injection, schedule: Q01DX009 (ip), vehicle: saline 109 % of control

O=C1NC(O)CCN1C1OC(CO)C(O)C1O (configuration not stated)
inactive: endpoint: mean survival time, dose: 25.0 mg/kg/injection, schedule: Q01DX009 (ip), vehicle: saline 101 % of control | endpoint: mean survival time, dose: 50.0 mg/kg/injection, schedule: Q01DX009 (ip), vehicle: saline 113 % of control | endpoint: mean survival time, dose: 50.0 mg/kg/injection, schedule: Q01DX015 (ip), vehicle: saline 98 % of control | endpoint: mean survival time, dose: 100.0 mg/kg/injection, schedule: Q01DX009 (ip), vehicle: saline 95 % of control | endpoint: mean survival time, dose: 100.0 mg/kg/injection, schedule: Q01DX015 (ip), vehicle: saline 94 % of control | endpoint: mean survival time, dose: 200.0 mg/kg/injection, schedule: Q01DX009 (ip), vehicle: saline 110 % of control | endpoint: mean survival time, dose: 400.0 mg/kg/injection, schedule: Q01DX009 (ip), vehicle: saline 90 % of control | endpoint: mean survival time, dose: 800.0 mg/kg/injection, schedule: Q01DX009 (ip), vehicle: saline 95 % of control | endpoint: median survival time, dose: 500.0 mg/kg/injection, schedule: Q01DX009 (ip), vehicle: saline 102 % of control | endpoint: median survival time, dose: 1000.0 mg/kg/injection, schedule: Q01DX009 (ip), vehicle: saline 94 % of control | endpoint: median survival time, dose: 2000.0 mg/kg/injection, schedule: Q01DX009 (ip), vehicle: saline 93 % of control

COC1=CC23CCN(C)C(CCc4cc(OC)c(OC)c(OC)c42)C3=CC1=O (configuration not stated)
inactive: endpoint: mean survival time, dose: 25.0 mg/kg/injection, schedule: Q04DX002 (ip), vehicle: saline 114 % of control | endpoint: mean survival time, dose: 50.0 mg/kg/injection, schedule: Q04DX002 (ip), vehicle: saline 108 % of control | endpoint: mean survival time, dose: 100.0 mg/kg/injection, schedule: Q04DX002 (ip), vehicle: saline 111 % of control | endpoint: mean survival time, dose: 200.0 mg/kg/injection, schedule: Q04DX002 (ip), vehicle: saline 105 % of control | endpoint: mean survival time, dose: 400.0 mg/kg/injection, schedule: Q04DX002 (ip), vehicle: saline 103 % of control

O=C(SCc1ccccc1)C(O)c1ccccc1 (configuration not stated)
inactive: [3] 94 % of control | [5] 100 % of control | [7] 97 % of control

O=[N+]([O-])c1ccc2c(c1)=N/C(=N\c1nc(O)c(O)[nH]1)N=2
inactive: [14] 101 % of control | [16] 98 % of control | endpoint: mean survival time, dose: 400.0 mg/kg/injection, schedule: Q04DX003 (ip), vehicle: Klucel (hydroxypropylcellulose) (HPC) 104 % of control
